Source: patent publication US20090131327A1, “NOGO RECEPTOR FUNCTIONAL MOTIFS AND PEPTIDE MIMETICS RELATED THERETO AND METHODS OF USING THE SAME” (priority 2005, published 2009)
Values joined by “and” are separate entries in the source; they are usually repeats but may differ in a detail not shown here. Identical values can stand only once. “Also recorded” adds a separate entry of the source. Positions of bridges follow the written chain, without caps; N, C: chain ends.

Legend:
[1] = system: myelin; assay: Antagonism of the inhibitory activity of myelin (data not shown); type: cell-based
[2] = system: cerebellar neurons; assay: Neurite outgrowth assay: antagonism of MAG-Fc-mediated inhibition of neurite outgrowth, neurons over 3T3 monolayers; type: cell-based, rat; details: MAG-Fc 20 μg/ml; for antagonism of MAG-Fc inhibition of neurite outgrowth: peptide 100 μg/ml, ~23-27 hr, FIG. 2; for peptide concentration with maximal promotion of neurite outgrowth / peptide concentration with significant promotion of neurite outgrowth: FIG. 5; for antagonism of inhibitory activity of MAG-Fc: peptide 50 μg/ml (60 μM)
[3] = system: cerebellar neurons; assay: as above; type: cell-based, rat; details: for effectiveness in antagonizing MAG inhibition relative to NRL2: compared with parental peptide NRL2
Protocol: (§1) Cerebellar neurons isolated from postnatal day 2/3 rat pups were cultured over monolayers of 3T3 cells (Doherty et al. (1991) Neuron 6(2):247-58) essentially as previously described (Williams et al. (1994) Neuron 13(3):583-94). Monolayers were established by seeding ˜80,000 cells into individual chambers of an eight-chamber tissue culture slide coated with poly-L-lysine and fibronectin. The cell lines, and monolayers, were maintained in Dulbecco's modified Eagle's medium supplemented with 10% fetal calf serum (FCS). Cocultures were established by removing the media from the monolayers and seeding ˜6000 dissociated cerebellar neurons into each well in SATO medium (modified from Doherty et al. (1990) Neuron 5(2):209-19; Dulbecco's modified Eagle's medium supplemented with 2% FBS, 33% bovine albumin, 0.62 μg/ml progesterone, 161 μg/ml putrescine, 4 μg/ml L-thyroxine, 0.387 μg/ml selenium, and 3.37 μg/ml tri-iodo-thyronine (components from Sigma-Aldrich, St. Louis, Mo.)). Monolayers were established for 24 hours prior to addition of the neurons and the cultures were maintained for ˜23-27 hr. Following careful fixation with 4% paraformaldehyde, the neurons were immunostained with a GAP-43 antibody, and the mean length of the longest neurite per cell was measured for ˜120-150 neurons, again as previously described (Williams et al. (1994) Neuron 13(3):583-94).
(§2) Synthetic peptides were all obtained from a commercial supplier (Multiple Peptide Systems, San Diego, Calif.). All peptides were purified to the highest grade by reverse-phase HPLC and obtained at the highest level of purity (>97%). With all peptides, there was no indication of higher molecular weight species. Where peptide sequences are underlined, this denotes a peptide that has been cyclized via a disulfide bond between the given cysteine residues. All peptides were acetylated (e.g., denoted with “N—Ac—”) and amide blocked (e.g., denoted with “—NH2”). Recombinant MAG-Fc chimera was obtained from R&D Systems (Minneapolis, Minn.) and used at final concentrations ranging from 5-25 μg/ml. The monoclonal antibody to GT1b (clone GMR5) was obtained from Seikagaku America (Falmouth, Mass.) and was used at a final concentration of 20 μg/ml. All reagents were diluted into the coculture media and, in general, added to the cultures just prior to the plating of the neurons.
MAG was the first inhibitory component of myelin to be identified based on its ability to inhibit neurite outgrowth from postnatal rat cerebellar neurons (Mukhopadhyay et al. (1994) Neuron 13(3):757-67). […] NgR1 function is required for MAG inhibition of neurite outgrowth (Domeniconi et al. (2002) Neuron 35(2):283-90; Liu et al. (2002) Science 297:1190-93). Consequently, in order to determine if the mimetic peptides could antagonize, (e.g., reverse, decrease, reduce, prevent, etc.) NgR1 function (e.g., reverse NgR1-ligand-mediated inhibition of axonal growth), the peptides were tested for their ability to antagonize MAG-mediated inhibition of axonal growth. […] The ability of the NRL peptides to antagonize MAG-mediated inhibition of axonal growth was tested in a number of independent experiments. […] In order to evaluate the efficacy of the NRL2 peptide, the ability of various concentrations of NRL2 to overcome the inhibitory activity of 25 μg/ml of the soluble MAG-Fc chimera was tested. Results obtained from at least three independent experiments have been pooled to generate FIG. 3.

[4] = system: cerebellar neurons; assay: Neurite outgrowth assay: substance alone in coculture media, neurons over 3T3 monolayers; type: cell-based, rat; details: without MAG-Fc; for effect on neurite outgrowth in control media: peptide alone
Protocol: as §1, §2
MAG was the first inhibitory component of myelin to be identified based on its ability to inhibit neurite outgrowth from postnatal rat cerebellar neurons (Mukhopadhyay et al. (1994) Neuron 13(3):757-67). […] NgR1 function is required for MAG inhibition of neurite outgrowth (Domeniconi et al. (2002) Neuron 35(2):283-90; Liu et al. (2002) Science 297:1190-93). […]

[5] = system: cerebellar neurons; assay: Neurite outgrowth assay: antagonism of inhibition by anti-GT1b antibody; type: cell-based, rat; details: peptide 100 μg/ml; anti-GT1b up to 40 μg/ml; FIG. 4
Protocol: Cerebellar neurons isolated from postnatal day 2/3 rat pups were cultured over monolayers of 3T3 cells (Doherty et al. (1991) Neuron 6(2):247-58) essentially as previously described (Williams et al. (1994) Neuron 13(3):583-94). Monolayers were established by seeding ˜80,000 cells into individual chambers of an eight-chamber tissue culture slide coated with poly-L-lysine and fibronectin. The cell lines, and monolayers, were maintained in Dulbecco's modified Eagle's medium supplemented with 10% fetal calf serum (FCS). Cocultures were established by removing the media from the monolayers and seeding ˜6000 dissociated cerebellar neurons into each well in SATO medium (modified from Doherty et al. (1990) Neuron 5(2):209-19; Dulbecco's modified Eagle's medium supplemented with 2% FBS, 33% bovine albumin, 0.62 μg/ml progesterone, 161 μg/ml putrescine, 4 μg/ml L-thyroxine, 0.387 μg/ml selenium, and 3.37 μg/ml tri-iodo-thyronine (components from Sigma-Aldrich, St. Louis, Mo.)). Monolayers were established for 24 hours prior to addition of the neurons and the cultures were maintained for ˜23-27 hr. Following careful fixation with 4% paraformaldehyde, the neurons were immunostained with a GAP-43 antibody, and the mean length of the longest neurite per cell was measured for ˜120-150 neurons, again as previously described (Williams et al. (1994) Neuron 13(3):583-94). […]

Substance: Ac-CTDIKGKEC-NH2 (cysteine pairing not given here)
- antagonism of the inhibitory activity of myelin [1]: do not antagonize

Substance: N-Ac c[sGrfkq]-NH2 (XGXXXX; not fully specified; cyclised or stapled) [hriNRL2]
- reversal of MAG-mediated inhibition of neurite outgrowth ([2]; increasing peptide concentrations, FIG. 6): reverse MAG-mediated inhibition of neurite outgrowth

Substance: N-Ac-CAGRDLKRC-NH2 (disulfide 1-9; SMILES CC(=O)N[C@H]1CSSC[C@@H](C(N)=O)NC(=O)[C@H](CCCNC(=N)N)NC(=O)[C@H](CCCCN)NC(=O)[C@H](CC(C)C)NC(=O)[C@H](CC(=O)O)NC(=O)[C@H](CCCNC(=N)N)NC(=O)CNC(=O)[C@H](C)NC1=O) [NRL4]
- antagonism of MAG-Fc inhibition of neurite outgrowth [2]: MAG-Fc also substantially inhibited neurite outgrowth

Substance: N-Ac-CKFRGSC-NH2 (disulfide 1-7; SMILES CC(=O)N[C@H]1CSSC[C@@H](C(N)=O)NC(=O)[C@H](CO)NC(=O)CNC(=O)[C@H](CCCNC(=N)N)NC(=O)[C@H](Cc2ccccc2)NC(=O)[C@H](CCCCN)NC1=O) [NRL2a]
- effectiveness in antagonizing MAG inhibition relative to NRL2 [3]: as effective as NRL2
- effectiveness in antagonizing MAG inhibition relative to NRL2 ([3]; listed as N-Ac-CKFRGSC-NH2): as effective as the longer parental peptide
- effect on neurite outgrowth in control media [4]: no effect
- peptide concentration with maximal promotion of neurite outgrowth [2]: 50 μg/ml and 60 μM
- peptide concentration with significant promotion of neurite outgrowth [2]: 25 μg/ml and 30 μM
- antagonism of inhibitory activity of MAG-Fc [2]: effectively antagonized

Substance: N-Ac-CLQKFRGSSC-NH2 (disulfide 1-10; SMILES CC(=O)N[C@H]1CSSC[C@@H](C(N)=O)NC(=O)[C@H](CO)NC(=O)[C@H](CO)NC(=O)CNC(=O)[C@H](CCCNC(=N)N)NC(=O)[C@H](Cc2ccccc2)NC(=O)[C@H](CCCCN)NC(=O)[C@H](CCC(N)=O)NC(=O)[C@H](CC(C)C)NC1=O) [NRL2]
- activity as MAG antagonist (summary in discussion) ([3]; four disulfide-constrained NgR1 loop peptides): effective MAG antagonist
- effect on neurite outgrowth in control media [4]: no effect
- effect on control neurite outgrowth ([4]; tested at up to 200 μg/ml, FIG. 3): little effect
- antagonism of inhibitory effects of anti-GT1b antibody [5]: reversed; also recorded: just as effective
- antagonism of MAG-Fc inhibition of neurite outgrowth [2]: largely antagonized

Substance: N-Ac-CQKFRGC-NH2 (disulfide 1-7; SMILES CC(=O)N[C@H]1CSSC[C@@H](C(N)=O)NC(=O)CNC(=O)[C@H](CCCNC(=N)N)NC(=O)[C@H](Cc2ccccc2)NC(=O)[C@H](CCCCN)NC(=O)[C@H](CCC(N)=O)NC1=O) [NRL2b]
- effectiveness in antagonizing MAG inhibition relative to NRL2 [3]: as effective as NRL2
- effectiveness in antagonizing MAG inhibition relative to NRL2 ([3]; listed as N-Ac-CQKFRGC-NH2): as effective as the longer parental peptide
- effect on neurite outgrowth in control media [4]: no effect
- peptide concentration with maximal promotion of neurite outgrowth [2]: 50 μg/ml and 60 μM
- peptide concentration with significant promotion of neurite outgrowth [2]: 25 μg/ml and 30 μM
- antagonism of inhibitory activity of MAG-Fc [2]: effectively antagonized

Substance: N-Ac-CSLPQRLAC-NH2 (disulfide 1-9; SMILES CC(=O)N[C@H]1CSSC[C@@H](C(N)=O)NC(=O)[C@H](C)NC(=O)[C@H](CC(C)C)NC(=O)[C@H](CCCNC(=N)N)NC(=O)[C@H](CCC(N)=O)NC(=O)[C@@H]2CCCN2C(=O)[C@H](CC(C)C)NC(=O)[C@H](CO)NC1=O) [NRL3]
- antagonism of MAG-Fc inhibition of neurite outgrowth [2]: MAG-Fc also substantially inhibited neurite outgrowth

Substance: N-Ac-CYNEPKVTC-NH2 (disulfide 1-9; SMILES CC(=O)N[C@H]1CSSC[C@@H](C(N)=O)NC(=O)[C@H]([C@@H](C)O)NC(=O)[C@H](C(C)C)NC(=O)[C@H](CCCCN)NC(=O)[C@@H]2CCCN2C(=O)[C@H](CCC(=O)O)NC(=O)[C@H](CC(N)=O)NC(=O)[C@H](Cc2ccc(O)cc2)NC1=O) [NRL1]
- antagonism of MAG-Fc inhibition of neurite outgrowth [2]: MAG-Fc also substantially inhibited neurite outgrowth

Substance: NGF: nerve growth factor
- antagonism of the inhibitory activity of myelin [1]: do not antagonize
